Measured values reported in doi:10.1101/2024.07.21.604522v1 (biorxiv, 2024).

Target: T1, human ChaC1 (ChaC1p) (Homo sapiens, UniProt Q9BUX1)
T1 sequence (Q9BUX1 1-222): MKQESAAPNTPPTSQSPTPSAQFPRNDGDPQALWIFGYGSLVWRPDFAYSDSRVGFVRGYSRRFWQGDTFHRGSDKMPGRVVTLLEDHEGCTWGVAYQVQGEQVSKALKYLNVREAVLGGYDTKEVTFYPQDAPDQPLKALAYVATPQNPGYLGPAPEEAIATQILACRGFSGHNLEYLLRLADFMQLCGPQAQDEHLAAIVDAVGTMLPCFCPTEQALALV
Assay: ChaC1p-Dug1p coupled assay, cysteine by ninhydrin
Type: biochemical

O=C1C=CC(=O)c2c(O)cccc21 [juglone]
IC50: 8.7 µM
